Test [1] is described as follows: Cytotoxicity in peripheral blood mononuclear cells (PBM). It is filed as functional, cell-based. To be noted: Homo sapiens.
The next test has as its system Vero. Put plainly: Cytotoxicity in vero cells. It is filed as functional, cell-based. The conditions noted are these: Chlorocebus sabaeus.
Test [2] can be described thus: Effective concentration against HIV-1 in peripheral blood mononuclear cells (PBM). It is filed as functional, Homo sapiens.
A short description of test [3]: Cytotoxicity in peripheral blood mononuclear cells(PBM). It is filed as functional, cell-based. The conditions noted are these: Homo sapiens.
A short description of test [4]: Effective concentration against HIV-1 in peripheral blood mononuclear cells(PBM). It is filed as functional, Homo sapiens.
A short description of test [5]: Cytotoxicity in peripheral blood mononuclear. It is filed as functional, Homo sapiens.
Test [6] can be described thus: The compound was tested for antiviral activity against AZT resistant strain 10 HIV in PBM cells. The conditions noted are these: Homo sapiens, PBMC. It is filed as functional.
Test [7] can be described thus: The compound was tested for antiviral activity against AZT resistant strain 9F HIV in PBM cells. It is filed as functional, cell-based. The conditions noted are these: Homo sapiens, PBMC.
The nature of test [8]: The compound was tested for antiviral activity against AZT sensitive strain 9F HIV in PBM cells. The conditions noted are these: Homo sapiens, PBMC. It is filed as functional, cell-based.
Test [9] in a line: The compound was tested for antiviral activity against AZT sensitive 10 HIV in PBM cells. It is filed as functional. To be noted: Homo sapiens, PBMC.

The structures appear in SMILES notation.

As a reminder, the IC50 is the concentration that inhibits the measured activity by half. High values mean a need for much substance, low ones inhibition by little substance. What is called EC50 is the midpoint of the concentration-response curve. As for `O=c1ccn([C@H]2CO[C@@H](CO)O2)c(=O)[nH]1`, the IC50 (in test [1]; in the test on Vero) was over 100 µM in each case. The same molecule returned an EC50 in [2] of over 100 µM.
Take `Nc1ccn([C@@H]2CO[C@@H](CO)O2)c(=O)n1`: the 50% inhibitory concentration (IC50) (in test [1]; with Vero) was over 100 µM in each case. This molecule also showed an EC50 in [2] of 2.4 µM.
With `Nc1ccn([C@H]2CO[C@@H](CO)O2)c(=O)n1`, the half-maximal inhibitory concentration (IC50) stood at 62 µM in test [1] and 8.3 µM in the test with Vero. For the same molecule, the EC50 in test [2] turned out to be 0.16 µM.
Take `O=c1[nH]c(=O)n([C@H]2CO[C@@H](CO)O2)cc1Br`: the concentration for half-maximal inhibition (IC50) (in test [3]; in the test on Vero) was over 100 µM each time. In [4], this molecule registered a concentration for a half-maximal effect (EC50) of 9.3 µM.
On to `O=c1[nH]c(=O)n([C@@H]2CO[C@@H](CO)O2)cc1Br`, for which the IC50 (in test [3]; with Vero) was over 100 µM in each case. This molecule also registered an EC50 in test [4] of over 100 µM.
For `O=c1[nH]c(=O)n([C@H]2CO[C@@H](CO)O2)cc1Cl`, the IC50 (in test [5]; in the test with Vero) was over 100 µM in each case. In test [2], this molecule registered an EC50 of 6.8 µM.
For the molecule `O=c1[nH]c(=O)n([C@@H]2CO[C@@H](CO)O2)cc1F`, the IC50 (in test [1]; in the test on Vero) was over 100 µM each time. This molecule also registered an EC50 in test [2] of over 100 µM.
As for `O=c1[nH]c(=O)n([C@H]2CO[C@@H](CO)O2)cc1F`, the IC50 (in [1]; in the test with Vero) was over 100 µM throughout. In test [2], this molecule yielded a half-maximal effective concentration (EC50) of 69.6 µM.
Consider `O=c1ccn([C@@H]2CO[C@@H](CO)O2)c(=O)[nH]1`, for which the IC50 (in test [1]; in the test with Vero) was over 100 µM in each case. In [2], this molecule came in with a 50% effective concentration (EC50) of over 100 µM.
With `O=c1[nH]c(=O)n([C@H]2CO[C@@H](CO)O2)cc1I`, the concentration for half-maximal inhibition (IC50) (in test [1]; in the test with Vero) was over 100 µM each time. Also, the EC50 in test [2] is over 100 µM.
As to `O=c1[nH]c(=O)n([C@@H]2CO[C@@H](CO)O2)cc1I`, the concentration for half-maximal inhibition (IC50) (in test [1]; in the test on Vero) was over 100 µM each time. In test [2], this molecule registered an EC50 of over 100 µM.
Turning to `O=c1[nH]c(=O)n([C@@H]2CO[C@@H](CO)O2)cc1Cl`, the half-inhibitory concentration (IC50) (in test [1]; in the test on Vero) was over 100 µM in each case. In test [2], this molecule came in with an EC50 of over 100 µM.
The EC90 is the concentration at which the effect reaches the 90% level. Read a low EC90 as greater potency. For `Cc1cn([C@H]2C[C@H](N=[N+]=[N-])[C@@H](CO)O2)c(=O)[nH]c1=O` [ZIDOVUDINE], the IC50 was over 100 µM in test [1] and 28 µM in the test with Vero. For the same molecule, the concentration giving a half-maximal response (EC50) came to 0.009 µM in test [4], 1.2 µM in test [7] and 0.0012 µM in test [8]. Further, the EC90 is 19 µM in [6] and 0.0065 µM in [9].

The values are drawn from ChEMBL document CHEMBL1126056, “Asymmetric synthesis of 1,3-dioxolane-pyrimidine nucleosides and their anti-HIV activity” (J Med Chem, 1992).
